The text below walks through data of patent US9260375B2, “Metallo-β-lactamase inhibitors” (priority 2005, dated 2016).

As usually defined, the IC50 is the concentration that inhibits the measured activity by half.

One test addresses T1, VIM-2 (UniProt Q5U7L7).
T1 construct: His tag (C); made in house; host or cells: E. coli DH5α
The experiment in a line: biochemical. Conditions: nitrocefin 100 μM, VIM-2 1.5 nM, ZnSO4 100 μM, 50 mM HEPES pH 7.5, room temperature 20 min; read-out: IC50 of each inhibitor against VIM-2. Here is the method: (§1) The PCR product was integrated into pTrcHis2 TOPO vector (Invitrogen), and then introduced into E. coli DH5α (TOYOBO) for culture under the induction of 0.5 mM Isopropyl-β-D-(−)-thiogalactopyranoside (Wako) at 37° C. for 3 h to express IMP-1. After recovering the bacterial cells, the periplasmic fraction was extracted by ocmotic shock with sucrose to refine the IMP-1 by Ni-NTA Slurry (QIAGEN) with the His tag at the C-terminus.
(§2) In order to determine the inhibitory activity of metallo-β-lactamase, a 50 mM HEPES (pH 7.5) buffer (referred to hereinafter as “buffer”) was used, and nitrocefin (Oxoid) with the final concentration of 100 μM was used as a substrate. A test drug (material to be tested: compound having an Example Number shown in Table 2) was added to each well of a 96-well plate, into which nitrocefin was added and mixed. Then, IMP-1 or VIM-2 was added to each well in the final concentration of 1 nM or 1.5 nM, respectively to react the mixture at room temperature for 20 min. In this case, ZnSO4 was added in the final concentration of 100 μM in order to exclude the inhibitory effect by the chelate effect. Enzyme inhibiting activity was determined by measuring the hydrolysis activity of nitrocefin at a wave length of 490 nm with ARVOsx microplate reader (Wallac).

The target in another test is T2, IMP-1 (Serratia marcescens, UniProt P52699).
T2 construct: The total length of IMP-1 as a metallo-β-lactamase was amplified by PCR; His tag (C); made in house; host or cells: E. coli DH5α, pTrcHis2 TOPO vector, periplasmic fraction
The experiment in a line: biochemical. To be noted: nitrocefin 100 μM, IMP-1 1 nM, ZnSO4 100 μM, 50 mM HEPES pH 7.5, room temperature 20 min; read-out: IC50 of each inhibitor against IMP-1. Here is the method: as §1, §2

Test [1] deals with IMP-1 producing Pseudomonas aeruginosa strain PAO1/pMS363. The class given is cell-based. Conditions: no inhibitor, in µg/mL. The text has this: IMP-1 producing Pseudomonas aeruginosa strain PAO1/pMS363 (FEMS Microbiology Letters 1994, 121, 175) was used for evaluating the inhibitory effect of maleic acid derivatives on the resistance against carbapenem by the metallo-β-lactamase in bacteria.

T2 sequence (P52699 19-246 limits assumed): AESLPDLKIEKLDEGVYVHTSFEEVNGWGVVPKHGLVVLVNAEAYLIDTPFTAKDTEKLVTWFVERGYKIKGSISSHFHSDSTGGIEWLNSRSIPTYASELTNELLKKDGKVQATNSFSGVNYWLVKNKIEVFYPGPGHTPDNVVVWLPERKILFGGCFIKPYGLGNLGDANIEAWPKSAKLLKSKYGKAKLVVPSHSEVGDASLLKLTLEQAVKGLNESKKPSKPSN

Regarding `CC/C(C(=O)O)=C(\Cc1ccccc1)C(=O)O` [Example 11, 2-benzyl-3-ethylmaleic acid disodium], the IC50 at VIM-2 was 3 µM; at IMP-1, 0.29 µM.

With `CC(C)/C(C(=O)O)=C(\Cc1ccc(C(N)=O)cc1)C(=O)O` [Example 72, 2-(4-Carbamoylbenzyl)-3-isopropylmaleic acid disodium], the figures for the IC50 at VIM-2 and on IMP-1 were 0.6 µM and 1.4 µM, respectively.

Take `C[C@@H](O)[C@H]1C(=O)N2C(C(=O)O)=C(S[C@@H]3CN[C@H](CNS(N)(=O)=O)C3)[C@H](C)[C@H]12` [DRPM, doripenem]: the “MIC of β-lactam drugs, β-lactam alone” value in test [1] is 128.

For the compound `C[C@@H](O)[C@H]1C(=O)N2C(C(=O)O)=C(S[C@H]3C[C@@H](C(=O)N4CC[C@H](NC(=O)CNC(=N)N)C4)N(C)C3)[C@H](C)[C@H]12` [CS-023, (−)-(4R,5S,6S)-3-[[(3S,5S)-5-[(S)-3-(2-guanidinoacetylamino)pyrrolidin-1-ylcarbonyl]-1-methylpyrrolidin-3-yl]thio]-6-[(R)-1-hydroxyethyl]-4-methyl-7-oxo-azabicyclo[3.2.0]hept-2-ene-2-carboxylic acid], the “MIC of β-lactam drugs, β-lactam alone” value in test [1] amounted to 256.

Consider `CC/C(C(=O)O)=C(\SC(C)C)C(=O)O` [Example 66, 3-Ethyl-2-isopropylthiomaleic acid disodium], for which the IC50 was 14 µM on VIM-2 and 1.2 µM at IMP-1.

As to `CO/N=C(\C(=O)N[C@@H]1C(=O)N2C(C(=O)[O-])=C(C[N+]3(C)CCCC3)CS[C@H]12)c1csc(N)n1` [CFPM, cefepime], the “MIC of β-lactam drugs, β-lactam alone” value in test [1] is listed as 2048.

`CC(C)/C(C(=O)O)=C(/C(=O)O)C1CCOCC1` [Example 51, 3-Isopropyl-2-(tetrahydropyran-4-yl)maleic acid disodium]: the half-inhibitory concentration (IC50) was found to be 1.8 µM at VIM-2 and 1.9 µM on IMP-1.

In the case of `CC(C)/C(C(=O)O)=C(\Cc1ccc(O)cc1)C(=O)O` [Example 86, 2-(4-Oxidobenzyl)-3-isopropylmaleic acid trisodium], the IC50 at VIM-2 is 1.9 µM; on IMP-1 it was 0.56 µM.

In the case of `CO/N=C(\C(=O)N[C@@H]1C(=O)N2C(C(=O)O)=C(CSc3nc(=O)c(=O)[nH]n3C)CS[C@H]12)c1csc(N)n1` [CTRX, ceftriaxone], the “MIC of β-lactam drugs, β-lactam alone” value in test [1] amounted to 4096.

Regarding `C[C@@H](O)[C@H]1C(=O)N2C(C(=O)O)=C(SCCN=CN)C[C@H]12` [IPM, imipenem], in test [1], the “MIC of β-lactam drugs, β-lactam alone” value was 128-256.

Consider `C/C(C(=O)O)=C(/C(=O)O)C(C)C` [Example 22, 2-isopropyl-3-methylmaleic acid disodium], for which the IC50 came out at 7.3 µM at VIM-2 and 2.4 µM on IMP-1.

In the case of `CC(C)/C(C(=O)O)=C(\Cc1cccnc1)C(=O)O` [Example 54, 2-Isopropyl-3-[(pyridine-3-yl)methyl]maleic acid disodium], the IC50 at VIM-2 stood at 5.3 µM; on IMP-1 it was 2.8 µM.

As to `CC(C)(O/N=C(\C(=O)N[C@@H]1C(=O)N2C(C(=O)[O-])=C(C[n+]3ccccc3)CS[C@H]12)c1csc(N)n1)C(=O)O` [CAZ, ceftadizime], in test [1], the “MIC of β-lactam drugs, β-lactam alone” value was determined as 2048.

Regarding `CC(C)/C(C(=O)O)=C(\Cc1ccc(OCCN)cc1)C(=O)O` [Example 92, 2-[4-(2-aminoethoxy)benzyl]-3-isopropylmaleic acid disodium], the IC50 worked out at 0.3 µM at VIM-2 and 0.98 µM on IMP-1.

Turning to `C[C@@H](O)[C@H]1C(=O)N2C(C(=O)[O-])=C(SC3Cn4cnc[n+]4C3)[C@H](C)[C@H]12` (stereo partly shown) [BIPM, biapenem], the “MIC of β-lactam drugs, β-lactam alone” value in test [1] is reported as 64-128.

With `CC(C)/C(C(=O)O)=C(/C(=O)O)C1CCCCC1` [Example 43, 2-Cyclohexyl-3-isopropylmaleic acid disodium], the IC50 on VIM-2 was found to be 0.16 µM; at IMP-1, 0.19 µM.
